This note sets out measurements from patent publication US20080039508A1, “Treatment Of Tumours” (AQ+PLC, priority 2004, published 2008).

In the case of `Oc1cccc2cccnc12` [8-hydroxyquinoline], the “solubility in aqueous solution” value was “generally insoluble or only poorly soluble”.
